The target in the assay is DGKα (Homo sapiens (Human), UniProt P23743). Description: Human DGKα kinase activity inhibition assay (ADP-Glo). As to conditions: recombinant full-length human DGKα, 55 μM ATP, 7 μM 1,2-dioleoyl-sn-glycerol, read-out: IC50 values of examples in in vitro human DGKa kinase activity inhibition assays. Type of assay: biochemical. Put shortly:
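Recombinant full-length human DGKα (C-terminal FLAG, from insect cells) phosphorylated 1,2-dioleoyl-sn-glycerol presented in octyl-glucopyranoside micelles. ADP formed was quantified by ADP-Glo luminescence. Compounds were added from 100-fold DMSO stocks.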
A general note: ADP-Glo first removes unused ATP, then detects ADP through luciferase.
DGKα, sequence (P23743 other isoform, or with tags, fused parts or gaps): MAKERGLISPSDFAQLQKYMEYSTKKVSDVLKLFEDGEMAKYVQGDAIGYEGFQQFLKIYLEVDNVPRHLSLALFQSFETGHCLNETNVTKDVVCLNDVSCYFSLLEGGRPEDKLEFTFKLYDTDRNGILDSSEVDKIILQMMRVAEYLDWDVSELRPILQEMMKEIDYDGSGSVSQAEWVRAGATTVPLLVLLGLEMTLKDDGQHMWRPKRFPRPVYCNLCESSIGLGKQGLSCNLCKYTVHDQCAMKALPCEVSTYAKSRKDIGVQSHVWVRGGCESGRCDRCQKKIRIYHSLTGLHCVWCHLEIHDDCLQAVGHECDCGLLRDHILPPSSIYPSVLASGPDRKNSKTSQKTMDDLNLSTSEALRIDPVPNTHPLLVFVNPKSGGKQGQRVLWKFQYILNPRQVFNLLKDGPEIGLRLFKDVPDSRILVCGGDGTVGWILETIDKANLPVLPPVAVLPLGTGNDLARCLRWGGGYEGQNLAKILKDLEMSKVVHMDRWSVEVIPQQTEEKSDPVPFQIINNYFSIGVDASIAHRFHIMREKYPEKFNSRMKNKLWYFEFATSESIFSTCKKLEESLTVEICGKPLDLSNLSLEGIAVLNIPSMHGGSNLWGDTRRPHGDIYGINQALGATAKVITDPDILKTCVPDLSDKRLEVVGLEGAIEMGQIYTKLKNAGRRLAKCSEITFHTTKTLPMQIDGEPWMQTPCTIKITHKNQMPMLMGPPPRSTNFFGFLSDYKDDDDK
For `Cc1ccc2oc(C3CCN(c4c(C(N)=O)c(=O)n(C)c5ccc(C#N)cc45)CC3)nc2c1` [Example 498, 6-cyano-1-methyl-4-[4-(5-methyl-1,3-benzoxazol-2-yl)piperidin-1-yl]-2-oxo-1,2-dihydroquinoline-3-carboxamide], the IC50 was found to be 3.1 nM.
In the case of `Cc1ccc2oc(C3CCN(c4c(C#N)c(=O)n(C)c5ccccc45)CC3)nc2c1` [Example 5, 1-methyl-4-[4-(5-methyl-1,3-benzoxazol-2-yl)piperidin-1-yl]-2-oxo-1,2-dihydroquinoline-3-carbonitrile] it was 1.6 nM; in that of `COc1ccccc1C1CCN(c2c(C#N)c(=O)n(C)c3ccccc23)CC1` [Example 52, 4-[4-(2-methoxyphenyl)piperidin-1-yl]-1-methyl-2-oxo-1,2-dihydroquinoline-3-carbonitrile], 8.8 nM.
For the compound `COc1ccc2c(N3CCC(c4nc5ccccc5o4)CC3)c(C#N)c(=O)n(C)c2c1` [Example 243, 4-[4-(1,3-benzoxazol-2-yl)piperidin-1-yl]-7-methoxy-1-methyl-2-oxo-1,2-dihydroquinoline-3-carbonitrile], the IC50 stood at 3.5 nM.
In the case of `COc1ccc(C2CCN(c3c(C#N)c(=O)n(C)c4c(F)cccc34)CC2)cc1` [Example 153, 8-fluoro-4-[4-(4-methoxyphenyl)piperidin-1-yl]-1-methyl-2-oxo-1,2-dihydroquinoline-3-carbonitrile] it was 45 nM.
As to `Cn1c(=O)c(C#N)c(N2CCC(C)(c3nc4ccccc4o3)CC2)c2ccc(C(F)(F)F)cc21` [Example 292, 4-[4-(1,3-benzoxazol-2-yl)-4-methylpiperidin-1-yl]-1-methyl-2-oxo-7-(trifluoromethyl)-1,2-dihydroquinoline-3-carbonitrile], the IC50 worked out at 3.2 nM.
In the case of `Cc1ccc2oc(C3CCN(c4c(C(N)=O)c(=O)n(C)c5c(Br)cccc45)CC3)nc2c1` [Example 493, 8-bromo-1-methyl-4-[4-(5-methyl-1,3-benzoxazol-2-yl)piperidin-1-yl]-2-oxo-1,2-dihydroquinoline-3-carboxamide] it was 80 nM; in that of `Cc1ccc2oc(C3(C)CCN(c4c(C(N)=O)c(=O)n(C)c5ccc(Br)cc45)CC3)nc2c1` [Example 203, 6-bromo-1-methyl-4-[4-methyl-4-(5-methyl-1,3-benzoxazol-2-yl)piperidin-1-yl]-2-oxo-1,2-dihydroquinoline-3-carboxamide], 0.9 nM.
For the compound `Cn1c(=O)c(C#N)c(N2CCC(c3ccc(C#N)cc3)CC2)c2ccccc21` [Example 86, 4-[4-(4-cyanophenyl)piperidin-1-yl]-1-methyl-2-oxo-1,2-dihydroquinoline-3-carbonitrile], the IC50 is 54 nM.
The value for `CCC1(c2nc3ccccc3o2)CCN(c2c(C#N)c(=O)n(C)c3cc(Br)ccc23)CC1` [Example 223, 4-[4-(1,3-benzoxazol-2-yl)-4-ethylpiperidin-1-yl]-7-bromo-1-methyl-2-oxo-1,2-dihydroquinoline-3-carbonitrile] was 1.2 nM; that for `Cc1ccc2oc(C3CCN(c4c(C#N)c(=O)n(C)c5ccc(OCC(F)F)cc45)CC3)nc2c1` [Example 407, 6-(2,2-difluoroethoxy)-1-methyl-4-[4-(5-methyl-1,3-benzoxazol-2-yl)piperidin-1-yl]-2-oxo-1,2-dihydroquinoline-3-carbonitrile] was 48 nM; that for `Cc1ccc2c(c1)c(N1CCC(c3nc4cc(C(C)C)ccc4o3)CC1)c(C(N)=O)c(=O)n2C` [Example 200, 1,6-dimethyl-2-oxo-4-{4-[5-(propan-2-yl)-1,3-benzoxazol-2-yl]piperidin-1-yl}-1,2-dihydroquinoline-3-carboxamide] was 3.9 nM.
The value for `Cn1c(=O)c(C#N)c(N2CCC(C)(c3ccccc3)CC2)c2ccccc21` [Example 58, 1-methyl-4-(4-methyl-4-phenylpipehdin-1-yl)-2-oxo-1,2-dihydroquinoline-3-carbonitrile] was 2.6 nM; that for `Cc1ccc2oc(C3CCN(c4c(C#N)c(=O)n(C)c5cc(P(C)(C)=O)ccc45)CC3)nc2c1` [Example 282, 7-(dimethylphosphoryl)-1-methyl-4-[4-(5-methyl-1,3-benzoxazol-2-yl)piperidin-1-yl]-2-oxo-1,2-dihydroquinoline-3-carbonitrile] was 872 nM; that for `Cn1c(=O)c(C#N)c(N2CCC(c3ccc4c(c3)OC(C)(C)O4)CC2)c2ccccc21` [Example 360, 4-[4-(2,2-dimethyl-2H-1,3-benzodioxol-5-yl)piperidin-1-yl]-1-methyl-2-oxo-1,2-dihydroquinoline-3-carbonitrile] was 1.2 nM.
The value for `COc1cccc(C2CCN(c3c(C#N)c(=O)n(C)c4ccccc34)CC2)c1` [Example 55, 4-[4-(3-methoxyphenyl)piperidin-1-yl]-1-methyl-2-oxo-1,2-dihydroquinoline-3-carbonitrile] was 14 nM.
`COc1ccccc1-c1csc(C2CCN(c3c(C#N)c(=O)n(C)c4ccccc34)CC2)n1` [Example 373, 4-{4-[4-(2-methoxyphenyl)-1,3-thiazol-2-yl]piperidin-1-yl}-1-methyl-2-oxo-1,2-dihydroquinoline-3-carbonitrile]: the IC50 stood at 9.9 nM.
Consider `Cc1ccc2oc(C3CCN(c4c(C#N)c(=O)n(C)c5ccc(C6CCC6)cc45)CC3)nc2c1` [Example 409, 6-cyclobutyl-1-methyl-4-[4-(5-methyl-1,3-benzoxazol-2-yl)piperidin-1-yl]-2-oxo-1,2-dihydroquinoline-3-carbonitrile], for which the concentration for half-maximal inhibition (IC50) is 8.4 nM.
In the case of `Cc1ccc2c(c1)c(N1CCC(c3nc4cc(Cl)ccc4o3)CC1)c(C#N)c(=O)n2C` [Example 185, 4-[4-(5-chloro-1,3-benzoxazol-2-yl)piperidin-1-yl]-1,6-dimethyl-2-oxo-1,2-dihydroquinoline-3-carbonitrile] it was 2.9 nM.
In the case of `CC(C)c1ccc2oc(C3(C)CCN(c4c(C(N)=O)c(=O)n(C)c5ccccc45)CC3)nc2c1` [Example 103, 1-methyl-4-{4-methyl-4-[5-(propan-2-yl)-1,3-benzoxazol-2-yl]piperidin-1-yl}-2-oxo-1,2-dihydroquinoline-3-carboxamide] it was 0.6 nM; in that of `Cc1ccc2c(c1)c(N1CCCC(c3nc4ccccc4o3)CC1)c(C(N)=O)c(=O)n2C` (centres unmarked) [Example 205, 4-[4-(1,3-benzoxazol-2-yl)azepan-1-yl]-1,6-dimethyl-2-oxo-1,2-dihydroquinoline-3-carboxamide], 4.8 nM; in that of `Cc1ccc2oc(C3CCN(c4c(C(N)=O)c(=O)n(C)c5ccc(C6(C(F)(F)F)CC6)cc45)CC3)nc2c1` [Example 507, 1-methyl-4-[4-(5-methyl-1,3-benzoxazol-2-yl)piperidin-1-yl]-2-oxo-6-[1-(trifluoromethyl)cyclopropyl]-1,2-dihydroquinoline-3-carboxamide], 85 nM.
In the case of `COc1ccc(C2CCN(c3c(C#N)c(=O)n(C)c4cc(C#N)ccc34)CC2)cc1` [Example 93, 4-[4-(4-methoxyphenyl)piperidin-1-yl]-1-methyl-2-oxo-1,2-dihydroquinoline-3,7-dicarbonitrile] it was 11 nM.
Regarding `Cc1ccc2oc(C3(C)CCN(c4c(C#N)c(=O)n(C)c5ccc(OCC6(C#N)CC6)cc45)CC3)nc2c1` [Example 268, 6-[(1-cyanocyclopropyl)methoxy]-1-methyl-4-[4-methyl-4-(5-methyl-1,3-benzoxazol-2-yl)piperidin-1-yl]-2-oxo-1,2-dihydroquinoline-3-carbonitrile], the IC50 came to 65 nM.
The value for `CCCOc1ccc(C2CCN(c3c(C#N)c(=O)n(C)c4ccccc34)CC2)cc1` [Example 42, 1-methyl-2-oxo-4-[4-(4-propoxyphenyl)piperidin-1-yl]-1,2-dihydroquinoline-3-carbonitrile] was 11 nM; that for `Cn1c(=O)c(C#N)c(N2CCC(c3nc4ccc(F)cc4o3)CC2)c2ccccc21` [Example 4, 4-[4-(6-fluoro-1,3-benzoxazol-2-yl)piperidin-1-yl]-1-methyl-2-oxo-1,2-dihydroquinoline-3-carbonitrile] was 2.8 nM.
The value for `Cn1c(=O)c(C#N)c(N2CCC(c3cccc4cnccc34)CC2)c2ccccc21` [Example 78, 4-[4-(isoquinolin-5-yl)piperidin-1-yl]-1-methyl-2-oxo-1,2-dihydroquinoline-3-carbonitrile] was 104 nM; that for `Cn1c(=O)c(C#N)c(N2CCC(c3ccc4c(c3)C3(CCC3)C(=O)N4)CC2)c2ccccc21` [Example 361, 1-methyl-2-oxo-4-[4-(2′-oxo-1′,2′-dihydrospiro[cyclobutane-1,3′-indol]-5′-yl)piperidin-1-yl]-1,2-dihydroquinoline-3-carbonitrile] was 27 nM; that for `Cc1ccc2c(c1)c(N1CCC(C)(c3nc4cc(C(C)C)ccc4o3)CC1)c(C(N)=O)c(=O)n2C` [Example 199, 1,6-dimethyl-4-{4-methyl-4-[5-(propan-2-yl)-1,3-benzoxazol-2-yl]piperidin-1-yl}-2-oxo-1,2-dihydroquinoline-3-carboxamide] was 3.4 nM.
Regarding `CCC1(c2nc3ccccc3o2)CCN(c2c(C#N)c(=O)n(C)c3ccccc23)CC1` [Example 106, 4-[4-(1,3-benzoxazol-2-yl)-4-ethylpiperidin-1-yl]-1-methyl-2-oxo-1,2-dihydroquinoline-3-carbonitrile], the IC50 is 0.9 nM.
In the case of `Cn1c(=O)c(C#N)c(N2CCC(c3ccccc3)CC2)c2ccc(Br)cc21` [Example 90, 7-bromo-1-methyl-2-oxo-4-(4-phenylpiperidin-1-yl)-1,2-dihydroquinoline-3-carbonitrile] it was 5.5 nM; in that of `Cc1ccc2oc(C3(C)CCN(c4c(C(N)=O)c(=O)n(C)c5ccc(P(C)(C)=O)cc45)CC3)nc2c1` [Example 452, 6-(dimethylphosphoryl)-1-methyl-4-[4-methyl-4-(5-methyl-1,3-benzoxazol-2-yl)piperidin-1-yl]-2-oxo-1,2-dihydroquinoline-3-carboxamide], 2570 nM.

One may read the IC50 as the concentration that inhibits the measured activity by half.

Values taken from US11998539B2, “Substituted aminoquinolones as DGKalpha inhibitors for immune activation” (Bayer Aktiengesellschaft, priority 2019, dated 2024).
